Source: patent US8940730B2, “Methods and compositions of treating a Flaviviridae family viral infection” (The Board of Trustees of the Leland Stanford Junior …, priority 2007, dated 2015)
Where two headings read alike, the source gives them in different places.

Key:
[1] = test system: HCV genotype 2a infectious clone; assay: HCV genotype 2a infectious clone assay (Renilla luciferase); type: cell-based; conditions: % replication activity of control with no test compound; for activity at 5 µM: Hepatitis C virus, read-out: 2a (% activity @ 5 μM), 5 μM
Procedure: The assays in parts A and B were used to generate the genotype 1b inhibitory activity and related cell toxicity (viability) data supported herein. This assay has been used to generate the genotype 2a inhibitory activity data supported herein.
(§1) 1) Wash cells once with PBS, trypsinize. […] Mix twice by pipeting. […] Make a common stock from all tubes. […] 15) Incubate for 24 hr before treatment.
(§2) 3) Repeat daily for 2 more days.

Huh7.5 cells = conditions: human, 3 days
Procedure: as §1, §2
1) Alamar blue assay—a) Include medium for background subtraction (and also for seeing change in color easily). b) Aspirate medium. c) Make a stock of medium plus 10% Alamar blue. Total volume per well is 100 μl. d) Incubate for 2-2.5 hrs at 37° C. (or until there is a color change). c) Read plates at flex station.

HCV RNA replication = assay: Luciferase assay of HCV RNA replication (Table 3); conditions: Hepatitis C virus, read-out: Residual Luciferase activity
Huh7 cell line = assay: MTT assay for HCV replicon reporter cell lines (cell toxicity); type: cell-based; conditions: Homo sapiens
HCV 1b RNA replicon = assay: Luciferase assay for HCV genotype 1b replicon reporter cell lines
[2] = Huh-7, cell toxicity, MTT, top concentration 25 μM, read-out: Cell Viability EC50
[3] = Hepatitis C virus, Huh-7, 48 h, read-out: 1b EC50, 1b replicon, Huh7, 48 hours, top concentration 25 μM
[4] = Huh-7, read-out: Cell Viability EC50

Structure (SMILES) | activity at 5 µM (HCV RNA replication) | activity at 10 µM (HCV RNA replication) | EC50 (Huh7 cell line; [2]) | EC50 (HCV 1b RNA replicon; [3]) | other results
CN(C)CCOc1nn(CCc2ccc(Cl)cc2)c2ccccc12 [EBP332] |  |  |  |  | activity at 5 µM [1]: 66%; 2a cell viability (@ 5 μM) (Huh7.5 cells): 100%
Clc1cccc(Cn2nc(OCCN3CCCC3)c3ccccc32)c1 [EBP334] |  |  |  |  | activity at 5 µM [1]: 69%; 2a cell viability (@ 5 μM) (Huh7.5 cells): 100%
c1ccc(Cn2nc(OCCCN3CCCCC3)c3ccccc32)cc1 [EBP192] |  |  |  |  | activity at 5 µM [1]: 50%; 2a cell viability (@ 5 μM) (Huh7.5 cells): 88%
Cc1cc2cn(Cc3ccc(Cl)cc3)nc2cc1Br [Compound 207] | > 80% | 55 to 80% |  |  | 
Cc1ccc2c(c1)c(OCCN1CCCC1)nn2Cc1ccccc1 [Compound 196] | 55 to 80% | 20 to 54% |  |  | 
c1ccc2c(c1)c(OCCN1CCCC1)nn2Cc1ccncc1 [EBP357] |  |  |  |  | activity at 5 µM [1]: 77%; 2a cell viability (@ 5 μM) (Huh7.5 cells): 94%
CN(C)CCCOc1nn(Cc2ccccc2)c2ccccc12 [Compound 184] | > 80% | 20 to 54% |  |  | 
Cc1cc2c(cnn2Cc2ccc(Cl)cc2)cc1Cl [Compound 200] | > 80% | 55 to 80% |  |  | 
O=C(O)C[C@@H]1CCCN1CCCOc1nn(Cc2ccc(Cl)cc2)c2ccccc12 [EBP508] |  |  |  |  | activity at 5 µM [1]: 77%; 2a cell viability (@ 5 μM) (Huh7.5 cells): 100%
Cc1ccc2c(c1)c(O)nn2Cc1ccccc1 [Compound 188] | > 80% | 20 to 54% |  |  | 
COc1cncc(-c2ccc3c(c2)c(OCCCN2CCC[C@@H]2C)nn3Cc2ccc(Cl)cc2)c1 [EBP898] |  |  | > 25 µM | 5.3 µM | 
c1ccc(Cn2nc(OCCCN3CCCCC3)c3ccccc32)cc1 [Compound 198] | 20 to 54% | < 20% |  |  | 
Cl.c1ccc(Cn2nc(OCCN3CCCCC3)c3ccccc32)cc1 [Compound 190] | > 80% | 55 to 80% |  |  | 
Cc1ccc2c(c1)c(OCCCN(C)C)nn2Cc1ccccc1 [Compound 187] | 55 to 80% | 20 to 54% |  |  | 
C[C@H]1CCCN1CCCOc1nn(Cc2ccc(Cl)cc2)c2ccc(N(C)Cc3ccccc3)cc12 [EBP924] |  |  | > 25 µM | 5.7 µM | 
c1ccc(Cn2ncc3ccccc32)cc1 [Compound 185] | > 80% | > 80% |  |  | 
Cc1cc2c(cnn2Cc2ccc(Cl)cc2)cc1[N+](=O)[O-] [Compound 204] | 55 to 80% | 20 to 54% |  |  | 
Clc1ccc(Cn2nc(OCCCN3CC4CC3CO4)c3ccccc32)cc1 (centres unmarked) [EBP528] |  |  |  | 7.9 µM | EC50 (Huh7 cell line; [4]): 8.4 µM
OC[C@@H]1CCCN1CCCOc1nn(Cc2ccc(Cl)cc2)c2ccc(Cl)cc12 [EBP647] |  |  | > 25 µM | 7.6 µM | 
Cl.c1ccc(Cn2nc(OCCN3CCCC3)c3ccccc32)cc1 [Compound 194] | > 80% | 55 to 80% |  |  | 
Cc1cc2nn(Cc3ccc(Cl)cc3)cc2cc1Cl [Compound 206] | > 80% | 55 to 80% |  |  | 
O[C@@H]1CCN(CCCOc2nn(Cc3ccc(Cl)cc3)c3ccc(Cl)cc23)C1 [EBP644] |  |  | > 25 µM | 7.5 µM | 

Structure (SMILES) | activity at 5 µM (HCV RNA replication) | activity at 10 µM (HCV RNA replication) | EC50 (Huh7 cell line; [2]) | EC50 (HCV 1b RNA replicon; [3]) | other results
C[C@H]1CCCN1CCCOc1nn(Cc2ccc(Cl)cc2)c2ccc(NC3CCCCC3)cc12 [EBP917] |  |  | > 25 µM | 8 µM | 
Cc1cc2nn(Cc3ccc(Cl)cc3)cc2cc1Br [Compound 208] | 55 to 80% | 20 to 54% |  |  | 
O=[N+]([O-])c1cc2cn(Cc3ccc(Cl)cc3)nc2cc1Cl [Compound 209] | > 80% | > 80% |  |  | 
Cc1ccc2c(c1)c(OCCCN1CCCCC1)nn2Cc1ccccc1 [Compound 199] | 20 to 54% | < 20% |  |  | 
C[C@H]1CCCN1CCCOc1nn(Cc2ccc(Cl)cc2)c2ccc(-c3ccoc3)cc12 [EBP864] |  |  | > 25 µM | 6.4 µM | 
Brc1ccc(Cn2ncc3ccccc32)cc1 [Compound 186] | > 80% | > 80% |  |  | 
Oc1nn(Cc2ccccc2)c2ccccc12 [Compound 189] | > 80% | > 80% |  |  | 
Cc1ccc2c(c1)c(OCCCN1CCCC1)nn2Cc1ccccc1 [Compound 193] | 20 to 54% | < 20% |  |  | 
Cl.c1ccc(Cn2nc(OCCCN3CCCC3)c3ccccc32)cc1 [Compound 192] | 55 to 80% | 20 to 54% |  |  | 
Cc1cc2nn(Cc3ccc(Cl)cc3)cc2cc1[N+](=O)[O-] [Compound 210] | 20 to 54% | 20 to 54% |  |  | 
Cc1ccc2c(c1)c(OCCN1CCCCC1)nn2Cc1ccccc1.Cl [Compound 191] | 55 to 80% | < 20% |  |  | 
C[C@H]1CCCN1CCCOc1nn(Cc2ccc(Cl)cc2)c2ccc(N3CCCCC3)cc12 [EBP865] |  |  |  | 8.2 µM | 
Clc1ccc(Cn2nc(OCCCN3CC=CC3)c3ccccc32)cc1 [EBP519] |  |  |  | 18 µM | EC50 (Huh7 cell line; [4]): > 25 µM
C[C@H]1CCCN1CCCOc1nn(Cc2ccc(Cl)cc2)c2ccccc12 [EBP389] |  |  |  |  | 2a (% activity @ 5 μM) ([1]; 5 μM): 44%
C[C@H]1CCCN1CCCOc1nn(Cc2ccc(Cl)cc2)c2ccc(-c3cccnc3)cc12 [EBP897] |  |  | > 25 µM | 7.2 µM | 
CC(=O)Nc1ccc(-c2ccc3c(c2)c(OCCCN2CCC[C@@H]2C)nn3Cc2ccc(Cl)cc2)cn1 [EBP900] |  |  | > 25 µM | 5.6 µM | 
Nc1ccc2c(c1)c(OCCCN1CCCC1)nn2Cc1ccc(Cl)cc1 [EBP531] |  |  | > 25 µM | 3.9 µM | 
Clc1ccc(Cn2cc3cc(Br)ccc3n2)cc1 [Compound 211] | > 80% | 55 to 80% |  |  | 
C[C@H]1CCCN1CCCOc1nn(Cc2ccc(Cl)cc2)c2ccc(Cl)cc12 [EBP646] |  |  | > 25 µM | 6.6 µM | 
C[C@H]1CCCN1CCCOc1nn(Cc2ccc(Cl)cc2)c2ccc(-c3cnc(N)nc3)cc12 [EBP903] |  |  | > 25 µM | 6.5 µM | 
FC(F)(F)c1ccc2cn(Cc3ccc(Cl)cc3)nc2c1 [Compound 212] | 55 to 80% | 20 to 54% |  |  | 
O[C@@H]1CN(CCCOc2nn(Cc3ccc(Cl)cc3)c3ccccc23)C[C@@H]1O [EBP514] |  |  | > 25 µM | 5.1 µM | 

Structure (SMILES) | activity at 5 µM (HCV RNA replication) | activity at 10 µM (HCV RNA replication) | EC50 (Huh7 cell line; [2]) | EC50 (HCV 1b RNA replicon; [3]) | other results
C[C@H]1CCCN1CCCOc1nn(Cc2ccc(Cl)cc2)c2ccc(-c3ccc(N4CCOCC4)nc3)cc12 [EBP899] |  |  | > 25 µM | 2.2 µM | 
C[C@H]1CCCN1CCCOc1nn(Cc2ccc(Cl)cc2)c2ccc(-c3cccnc3)cc12 [EBP846] |  |  |  |  | EC50 (HCV 1b RNA replicon; read-out: 1b EC50, 1b replicon, Huh7, 48 hours, top concentration 25 μM): 8.2 µM
O=[N+]([O-])c1cc2cnn(Cc3ccc(Cl)cc3)c2cc1Cl [Compound 203] | > 80% | 20 to 54% |  |  | 
Cc1cc2c(cnn2Cc2ccc(Cl)cc2)cc1Br [Compound 202] | > 80% | > 80% |  |  | 
Clc1ccc(Cn2nc(OCCCCN3CCCC3)c3ccccc32)cc1 [EBP548] |  |  | > 25 µM | 3.2 µM | 
C[C@H]1CCCN1CCCOc1nn(Cc2ccc(Cl)cc2)c2ccc(N3CCCCCC3)cc12 [EBP918] |  |  | 11 µM | 8.2 µM | 
C[C@H]1CCCN1CCCOc1nn(Cc2ccc(Cl)cc2)c2ccc(N(C)c3ccccc3)cc12 [EBP925] |  |  | > 25 µM | 5.7 µM | 
Cc1ccncc1-c1ccc2c(c1)c(OCCCN1CCC[C@@H]1C)nn2Cc1ccc(Cl)cc1 [EBP901] |  |  | > 25 µM | 5.5 µM | 
CN(C)CCOc1nn(Cc2ccccc2)c2ccccc12 [Compound 195] | > 80% | > 80% |  |  | 
COC[C@H]1CCCN1CCCOc1nn(Cc2ccc(Cl)cc2)c2ccc(N(C)c3ccccc3)cc12 [EBP522] |  |  | > 25 µM | 6 µM | 
COc1ccc(-c2ccc3c(c2)c(OCCCN2CCC[C@@H]2C)nn3Cc2ccc(Cl)cc2)cn1 [EBP902] |  |  | > 25 µM | 8.3 µM | 
Clc1ccc(Cn2nc(OCCCN3CCC[C@H]3CN3CCCC3)c3cc(Cl)ccc32)cc1 [EBP649] |  |  | > 25 µM | 5.6 µM | 
Clc1ccc(Cn2nc(OCC3CCCNC3)c3cc(Cl)ccc32)cc1 (centres unmarked) [EBP590] |  |  | 11 µM | 7.3 µM | 
C[C@H]1CCCN1CCCOc1nn(Cc2ccc(Cl)cc2)c2ccc(-c3ccncc3)cc12 [EBP904] |  |  | > 25 µM | 8.2 µM | 
OCC1CCN(CCCOc2nn(Cc3ccc(Cl)cc3)c3ccccc23)CC1 [EBP502] |  |  | > 25 µM | 4.2 µM | 
C[C@@H]1CCCN1CCCOc1nn(Cc2ccc(Cl)cc2)c2ccc(Cl)cc12 [EBP645] |  |  | > 25 µM | 8 µM | 
Cc1cc2cnn(Cc3ccc(Cl)cc3)c2cc1Br [Compound 201] | > 80% | 55 to 80% |  |  | 
CS(=O)(=O)Nc1ccc2c(c1)c(OCCCN1CCCC1)nn2Cc1ccc(Cl)cc1 [EBP532] |  |  | > 25 µM | 8.5 µM | 
C[C@H]1CCCN1CCCOc1nn(Cc2ccc(Cl)cc2)c2ccc(Br)cc12 [EBP743] |  |  |  | 8.1 µM | 
Cc1ccc2c(c1)c(OCCN(C)C)nn2Cc1ccccc1 [Compound 197] | > 80% | 20 to 54% |  |  | 
Clc1ccc(Cn2ncc3cc(Br)ccc32)cc1 [Compound 205] | > 80% | 55 to 80% |  |  | 
COCC1CCN(CCCOc2nn(Cc3ccc(Cl)cc3)c3ccccc23)CC1 [EBP530] |  |  | > 25 µM | 7.9 µM | 
